Test results: US8202995B2, “Pharmaceutically acceptable salts of aporphine derivatives and carboxyl group-containing agents and methods for preparing the same” (Standard Chem. & Pharm. Co., Ltd., priority 2008, dated 2012)

Legend:
[1] = Protection from peroxy radical-induced damage, Method A (β-phycoerythrin fluorescence, AAPH); type: biochemical; details: test compound 5×10^−6 M, AAPH 25 mM, β-phycoerythrin 5 nM, pH 7.4, FIG. 9
From the text: In order to evaluate the effect of test compounds in scavenging hydrophilic peroxy radical, the experiment was executed with reference to the method described by Tsuchiya et al. (Methods Enzymol 1992, 213: 460-472). In the experiment, peroxides will react with fluorescent substances and thus inflect observed fluorescence intensity. Thereby, the effect of test compounds in free radical scavenging can be evaluated by measuring the variation of the fluorescence intensity after the addition of test compounds.
First, to a silicate tube was added a phosphate solution (2 ml, pH 7.4), followed by the addition of β-phycoerythrin (5 nM) to increase relative fluorescence intensity. After 5 minutes, 2,2′-azobis (2-amidinopropane)dihydrochloride (25 mM, AAPH) was added therein. Subsequently, through a fluorescent spectrometry (Shimadzu RF-5301PC, Japan), the fluorescence intensity of β-phycoerythrin was measured by excitation at 540 nm and emission at 570 nm. Then, the test compounds (5×10^−6 M) was further added therein to observe the variation of the fluorescence intensity, in which 0.1% DMSO was taken as a control group.

[2] = tested on: lipid peroxidase, Dunkin Hartley Guinea pig liver microsomes; assay: Activity in inhibiting lipid peroxidase (malondialdehyde quantitation); type: biochemical; details: 10 μM, 20 minutes/37° C.
Procedure: The assay was executed with reference to the method described in Biochem Biophys Res Commun. Mar. 28, 1986; 135(3): 1015-21.
• (a) Source: Dunkin Hartley Guinea pig liver microsomes • (b) Substrate: Polyunsaturated fatty acid • (c) Vehicle: 1% DMSO • (d) Pre-Incubation Time/Temp: 15 minutes/37° C. • (e) Incubation Time/Temp: 20 minutes/37° C. • (f) Incubation Buffer: 0.25 M Potassium Phosphate, pH 7.4, 0.1 mM EDTA • (g) Quantitation Method: Spectrophotometric quantitation of Malondialdehyde

[3] = tested on: vascular smooth muscle cells of rats; assay: Protecting activity in vascular smooth muscle cells against H2O2 (MTT); type: cell-based, rat; details: 10 μM compound, 30 minutes before H2O2 200 μM for 24 hours, FIG. 17
Procedure: The vascular smooth muscle cells of rats (2×10^4 cells/mL×1 mL) were quantitatively seeded in 24-well plates, and cultured in Dulbecco's modified Eagle medium (DMEM) with 10% fetal bovine serum (FBS) for 24 hours to achieve cell adhesion. After cell adhesion, the DMEM medium with 10% fetal bovine serum was replaced with a fresh DMEM medium with 0.1% fetal bovine serum to perform cell culture for 48 hours.
Next, each test compound was added in the cultures (final concentration: 0.1, 1, 10 μM). After 30 minutes, H2O2 (200 μM) was added therein to perform reaction for 24 hours in an incubator. Subsequently, in a light-proof environment, MTT (100 μL) was added into each well to perform reaction at 37° C. for 3 hours. The supernatant liquor was removed and then isopropanol (500 μL) was added, followed by shaking for 10 minutes. After standing for 10 minutes, supernatant liquor (200 μL) was transferred into 96-well plates. Finally, the absorbance value (O.D.) was monitored at 540 nm (OD540) and 630 nm (OD630). Based on the measured absorbance values (OD540-OD630), the effect of these test compounds on cell growth can be evaluated, as shown in FIG. 3.

[4] = Free radical scavenging of 1,1-diphenyl-2-picryl-hydrazyl (DPPH); type: biochemical; details: DPPH 100 μM, 30 min, absorbance at 517 nm, FIGS. 2-8
Procedure: After 30 min, the absorbance (O.D.) was monitored spectrophotometrically at 517 nm. The activity in inhibiting free radical DPPH results in the decrease of absorbance.

[5] = Oxygen radical absorbing capacity, Method B (fluorescenin fluorescence decay, AAPH); type: biochemical; details: test substance 1 μM, 18.75 mM AAPH, 0.06 μM fluorescenin, 37° C., pH 7.4, FIGS. 10-16
Procedure: In order to evaluate the oxygen radical absorbing capacity of test compounds. The automated assay was carried out as described in a previous report by Gillespie and co-workers (Gillespie et al., 2007). The experiment was conducted at 37° C. under pH 7.4 condition with a blank sample in parallel. Briefly, 2, 2′-azobis (2-amidinopropane) dihydrochloride (AAPH) was used as a peroxyl generator. The final reaction mixture for each black microplat in a 96-well microplate assay contained 0.06 μM fluorescenin, 18.75 mM AAPH and appropriate test substance (1 μM) in 75 mM phosphate buffer. Test substance was directly dissolved in DMSO and diluted with 75 mM potassium phosphate buffer (pH 7.4) for analysis. The analyzer was programmed to record the fluorescence of fluorescenin every minute after the addition of AAPH. All fluorescent measurements are expressed relative to the initial reading (excitation at 485 nm and emission at 530 nm) on a FLUOstar Galaxy plate reader (Roche Diagnostic System Inc., Branchburg, N.J.). Raw data were exported from the Fluostar Galaxy software to an Excel (Microsoft, Roselle, Ill.) sheet for further calculations. All the reaction mixtures were prepared in duplicate, and at least three independent assays were performed for each sample. (Gillespie, K M et al., Nature Protocols 2007; 2: 867-870.)

[6] = PROGRESS (n=6105), individuals with cerebrovascular disease; cited from earlier work
[7] = HOPE (n=9297), patients with high cardiovascular risk; cited from earlier work

| Molecule | activity in free radical scavenging of DPPH in comparison with carboxyl group-containing agent alone and thaliporphine alone [4] | activity in free radical scavenging of APPH in comparison with carboxyl group-containing agent alone and aporphine alone [5] | other results |
| --- | --- | --- | --- |
| COc1cc2c(cc1OC)-c1c(O)c(OC)cc3c1C(C2)N(CC(=O)Nc1c(C)cccc1C)CC3 (stereo not shown) [Compound 2] |  |  | protection of β-phycoerythin from peroxy radical AAPH-induced damage (fluorescence degradation) [1]: can protect β-phycoerythin; Inhibition (%) [2]: 70%; inhibition of H2O2-induced damage to vascular smooth muscle cells [3]: slightly inhibited |
| CC(=O)NC(CS)C(=O)O.COc1cc2c(cc1O)CC1c3c(cc(OC)c(OC)c3-2)CCN1C (stereo not shown) [acetylcysteine salt of thaliporphine, Acetylcysteine salt of Thaliporphine] | much higher activity | much higher activity |  |
| Atorvastatin salt of Thaliporphine | much higher activity | much higher activity |  |
| bezafibrate salt of thaliporphine | much higher activity | much higher activity |  |
| salsalate salt of thaliporphine | much higher activity | much higher activity |  |
| Telmisartan salt of Thaliporphine | much higher activity |  |  |
| nateglinide salt of thaliporphine | much higher activity | much higher activity |  |
| COc1cc2c(cc1OC)-c1c(OC)c(OC)cc3c1C(C2)N(C)CC3.O=C(O)C=Cc1ccc(Cn2ccnc2)cc1 (stereo not shown) [ozagrel salt of glaucine] |  | much higher activity |  |
| Captopril salt of Thaliporphine | much higher activity | much higher activity |  |
| CCC[C@H](N[C@@H](C)C(=O)N1[C@H](C(=O)O)C[C@@H]2CCCC[C@@H]21)C(=O)OCC [perindopril] |  |  | reduction of recurrent stroke [6]: 28% |
| COc1cc2c(cc1OC)-c1c(O)c(OC)cc3c1C(C2)N(CC(O)COc1ccccc1OC)CC3 (stereo not shown) [Compound 1] |  |  | protection of β-phycoerythin from peroxy radical AAPH-induced damage (fluorescence degradation) [1]: can protect β-phycoerythin; Inhibition (%) [2]: 64%; inhibition of H2O2-induced damage to vascular smooth muscle cells [3]: significantly inhibited |
| CCOC(=O)[C@H](CCc1ccccc1)N[C@@H](C)C(=O)N1[C@H](C(=O)O)C[C@@H]2CCC[C@@H]21 [ramipril] |  |  | reduction of composite outcome (cardiovascular death, myocardial infarction and cerebrovascular accident) [7]: 22% |
